# Test results: article PMC8803738, “Impact of the mouse model and molar amount of injected ligand on the tissue distribution profile of PSMA radioligands” (European Journal of Nuclear Medicine and Molecular Imaging, 2021)
# Where two headings read alike, the source gives them in different places.
# Columns and labels:
# [1] = system: PC-3 PIP/flu tumor-bearing mice; conditions: PC-3 PIP model, 1.0 nmol, ref Deberle et al. [21], cited from earlier work
# Description for PC-3 PIP tumor cells: The cells were cultured in RPMI-1640 cell culture medium supplemented with 10% fetal calf serum, L-glutamine, and antibiotics. Puromycin (2 μg/mL) was used to maintain PSMA expression as previously reported [24]. […] The cells were cultured under standard cell culture conditions in RPMI-1640 medium supplemented with 10% fetal calf serum, L-glutamine, antibiotics, and pyruvate (1 mM).
# In brief, PC-3 PIP and LNCaP tumor cells were seeded in 12-well plates (3 × 10^5 cells and 1 × 10^6 cells in 2 mL medium/well, respectively) and incubated overnight. Both PSMA radioligands were applied at variable molar concentrations (0.75–500 nM) but at a constant activity concentration of 37.5 kBq/mL. The tumor cells were incubated for 4 h followed by washing steps and detachment of the cells for counting in a γ-counter (Perkin Elmer, Wallac Wizard 1480). The studies were performed in three independent experiments of six replicates. Statistical analysis was performed using a two-way ANOVA with Tukey’s and Sidak’s multiple comparison post-test in Graph Pad Prism (version 8) for different concentrations of the same radioligand and for the two radioligands at the same concentration, respectively. A p value of < 0.05 was considered statistically significant.
# Both tumor cell types were kept in a humidified atmosphere at 37 °C and 5% CO2. Routine cell culture
# was performed twice a week using PBS/EDTA (2 mM) and trypsin for cell detachment.
# internalization of the radioligands into PC-3 PIP and LNCaP tumor cells.
# Methods: Uptake and internalization studies were performed with PC-3 PIP and LNCaP tumor cells
# using variable concentrations of the respective ligand but constant activity concentrations. PC-3 PIP
# and LNCaP cells were seeded in 12-well plates and incubated at 37 °C and 5% CO2 overnight.
# Experiments with LNCaP cells were performed with poly -L-lysine-coated well plates to ensure better
# cell adherence. The radioligand solution was diluted using saline containing 0.05% bovine serum
# albumin (BSA) to avoid adherence to the vial. A defined volume of 25 µL (corresponding to 37.5 kBq) […]
compound,measurement,setting,value
"CC(C)Cc1ccc(C(C)C(=O)NC(CCN)C(=O)NCCCCC(NC(=O)CN2CCN(CC(=O)O)CCN(CC(=O)O)CCN(CC(=O)O)CC2)C(=O)NCC2CCC(C(=O)NC(Cc3ccc4ccccc4c3)C(=O)NCCCCC(NC(=O)NC(CCC(=O)O)C(=O)O)C(=O)O)CC2)cc1 (stereo not drawn) [[^177Lu]Lu-Ibu-DAB-PSMA, metal not drawn]","Tissue distribution, Blood",[1]; 4 h p.i.,3.7 ± 0.5 % IA/g
same,"Tissue distribution, Bone",[1]; 4 h p.i.,0.62 ± 0.08 % IA/g
same,"Tissue distribution, Heart",[1]; 4 h p.i.,1.3 ± 0.1 % IA/g
same,"Tissue distribution, Intestines",[1]; 4 h p.i.,0.71 ± 0.05 % IA/g
same,"Tissue distribution, Kidneys",[1]; 4 h p.i.,19 ± 2 % IA/g
same,"Tissue distribution, Liver",[1]; 4 h p.i.,1.5 ± 0.1 % IA/g
same,"Tissue distribution, Lung",[1]; 4 h p.i.,2.4 ± 0.3 % IA/g
same,"Tissue distribution, Muscle",[1]; 4 h p.i.,0.54 ± 0.09 % IA/g
same,"Tissue distribution, PC-3 PIP tumor",[1]; 4 h p.i.,66 ± 11 % IA/g
same,"Tissue distribution, PC-3 flu tumor",[1]; 4 h p.i.,1.2 ± 0.3 % IA/g
same,"Tissue distribution, Salivary glands",[1]; 4 h p.i.,0.86 ± 0.38 % IA/g
same,"Tissue distribution, Spleen",[1]; 4 h p.i.,1.1 ± 0.1 % IA/g
same,"Tissue distribution, Stomach",[1]; 4 h p.i.,0.62 ± 0.12 % IA/g
same,Tumor-to-blood ratio,[1]; 4 h p.i.,18 ± 3
same,Tumor-to-kidney ratio,[1]; 4 h p.i.,3.0 ± 0.5
same,Tumor-to-liver ratio,[1]; 4 h p.i.,45 ± 8
same,"Tissue distribution, Blood",[1]; 24 h p.i.,0.16 ± 0.02 % IA/g
same,"Tissue distribution, Bone",[1]; 24 h p.i.,< 0.10 % IA/g
same,"Tissue distribution, Heart",[1]; 24 h p.i.,0.10 ± 0.01 % IA/g
same,"Tissue distribution, Intestines",[1]; 24 h p.i.,0.11 ± 0.03 % IA/g
same,"Tissue distribution, Kidneys",[1]; 24 h p.i.,6.0 ± 0.7 % IA/g
same,"Tissue distribution, Liver",[1]; 24 h p.i.,0.56 ± 0.10 % IA/g
same,"Tissue distribution, Lung",[1]; 24 h p.i.,0.21 ± 0.03 % IA/g
same,"Tissue distribution, Muscle",[1]; 24 h p.i.,0.05 ± 0.01 % IA/g
same,"Tissue distribution, PC-3 PIP tumor",[1]; 24 h p.i.,52 ± 3 % IA/g
same,"Tissue distribution, PC-3 flu tumor",[1]; 24 h p.i.,0.17 ± 0.01 % IA/g
same,"Tissue distribution, Salivary glands",[1]; 24 h p.i.,0.56 ± 0.37 % IA/g
same,"Tissue distribution, Spleen",[1]; 24 h p.i.,0.32 ± 0.03 % IA/g
same,"Tissue distribution, Stomach",[1]; 24 h p.i.,0.18 ± 0.13 % IA/g
same,Tumor-to-blood ratio,[1]; 24 h p.i.,337 ± 40
same,Tumor-to-kidney ratio,[1]; 24 h p.i.,8.9 ± 1.0
same,Tumor-to-liver ratio,[1]; 24 h p.i.,98 ± 21
same,"Tissue distribution, Blood",[1]; 48 h p.i.,0.10 ± 0.04 % IA/g
same,"Tissue distribution, Bone",[1]; 48 h p.i.,< 0.10 % IA/g
same,"Tissue distribution, Heart",[1]; 48 h p.i.,< 0.10 % IA/g
same,"Tissue distribution, Intestines",[1]; 48 h p.i.,< 0.10 % IA/g
same,"Tissue distribution, Kidneys",[1]; 48 h p.i.,4.1 ± 0.8 % IA/g
same,"Tissue distribution, Liver",[1]; 48 h p.i.,0.49 ± 0.08 % IA/g
same,"Tissue distribution, Lung",[1]; 48 h p.i.,0.14 ± 0.04 % IA/g
same,"Tissue distribution, Muscle",[1]; 48 h p.i.,< 0.10 % IA/g
same,"Tissue distribution, PC-3 PIP tumor",[1]; 48 h p.i.,36 ± 10 % IA/g
same,"Tissue distribution, PC-3 flu tumor",[1]; 48 h p.i.,0.15 ± 0.04 % IA/g
same,"Tissue distribution, Salivary glands",[1]; 48 h p.i.,< 0.10 % IA/g
same,"Tissue distribution, Spleen",[1]; 48 h p.i.,0.26 ± 0.08 % IA/g
same,"Tissue distribution, Stomach",[1]; 48 h p.i.,< 0.10 % IA/g
same,Tumor-to-blood ratio,[1]; 48 h p.i.,364 ± 67
same,Tumor-to-kidney ratio,[1]; 48 h p.i.,8.7 ± 1.8
same,Tumor-to-liver ratio,[1]; 48 h p.i.,72 ± 11
same,Absolute amount of internalized radioligand,PC-3 PIP tumor cells; 0.00075 µM,14–21 % of total added activity
same,Internalized fraction,PC-3 PIP tumor cells; 4 h,23–28 % of total uptake
same,Cell uptake,"PC-3 PIP tumor cells; 4 h, 0.5 µM",≤ 2%
